Laboratory results published in US7723355B2, “7,8-dihydro-1,6-naphthyridin-5(6H)-ones and related bicyclic compounds as inhibitors of dipeptidyl peptidase IV and methods” (Bristol-Myers Squibb Company, priority 2006, dated 2010).
pKi: −log10 of the molar value. Where a name gives a salt, the structure may show the parent alone.

These compounds were tested against T1, human DPP-4 (Homo sapiens, UniProt P27487) (assay: DPP-4 inhibition assay (cleavage of pseudosubstrate Gly-Pro-pNA, absorbance at 405 nm)). Settings: recombinant human DPP-4, steady state, Gly-Pro-pNA 120 or 1000 μM, pH 7.4, 40 min preincubation; IC50 converted to Ki assuming competitive inhibition; read-out: DPP4 Ki.
T1 construct: during isolation the entire transmembrane domain (including His tag) is removed by proteases present in the CHO cells; His tag (enterokinase-cleavable, from pcDNA4/HisMax) (N, cleaved yes); made in house
T1 sequence (P27487 29-766 limits assumed): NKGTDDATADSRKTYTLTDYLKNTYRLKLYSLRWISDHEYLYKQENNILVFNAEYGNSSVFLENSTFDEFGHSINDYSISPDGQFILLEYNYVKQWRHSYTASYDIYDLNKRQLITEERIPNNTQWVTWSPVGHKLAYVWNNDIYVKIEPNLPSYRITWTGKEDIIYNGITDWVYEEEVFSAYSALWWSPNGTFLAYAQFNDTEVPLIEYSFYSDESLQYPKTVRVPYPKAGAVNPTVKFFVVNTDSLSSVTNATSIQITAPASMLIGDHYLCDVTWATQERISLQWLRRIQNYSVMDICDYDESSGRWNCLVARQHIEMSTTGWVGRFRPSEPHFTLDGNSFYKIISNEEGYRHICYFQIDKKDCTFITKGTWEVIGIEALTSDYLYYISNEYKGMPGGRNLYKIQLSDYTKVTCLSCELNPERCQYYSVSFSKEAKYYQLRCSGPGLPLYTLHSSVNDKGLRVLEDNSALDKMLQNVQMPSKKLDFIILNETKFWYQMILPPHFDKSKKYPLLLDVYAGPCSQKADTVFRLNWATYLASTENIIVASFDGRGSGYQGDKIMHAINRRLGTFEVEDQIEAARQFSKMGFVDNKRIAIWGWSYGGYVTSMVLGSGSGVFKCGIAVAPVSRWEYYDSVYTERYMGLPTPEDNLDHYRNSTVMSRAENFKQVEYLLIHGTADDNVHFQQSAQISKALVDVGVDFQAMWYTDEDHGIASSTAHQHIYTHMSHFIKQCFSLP
Assay type: biochemical
Description: DPP-4 inhibitory activity of the compounds of the present invention may be determined by use of an in vitro assay system which measures the degree in inhibition of DPP-4-mediated cleavage of an appropriate substrate or pseudo-substrate. Inhibition constants (Ki values) for the DPP-4 inhibitors of the invention may be determined by the method described in the experimental section below.
To generate human DPP-4, PCR (Red-tag polymerase, Sigma) was performed on Human cDNA from placenta (Clontech) using two primers, […] (SEQ ID NO:1) and […] (SEQ ID NO:2), based on the nucleotide sequence of the human clone (accession number M74777). PCR products were cloned into the pcDN4/HisMax TOPO vector (Invitrogene). For stable transfection of CHO-DG44 cells, DPP4 was rePCRed using primers […] (SEQ ID NO:3) and […] (SEQ ID NO:4) to generate KpnI and XhoI sites. The KpnI and XhoI sites were used to extract the N-terminal His tagged gene. The His tag, which could be cleaved and removed by Enterokinase, was included to allow purification using the TALON affinity column. The gene was then ligated into the KpnI and XhoI sites of the pD16 vector for stable transfection. Stable cell lines were generated by transfecting the expression vector into Chinese hamster ovary (CHO-DG44) cells using electroporation. The CHO-DG44 cell line was grown in PFCHO media supplemented with HT (glycine, hypoxanthine and thymidine, Invitrogene), glutamine and Recombulin (ICN). Then 1×10^7 cells/ml were collected, transfected with 60 μg of DNA using electroporation at 300V, and then transferred to a T75 flask. On the third day following transfection, the HT supplement was removed and selection was initiated with methotrexate (MTX, 10 nM, ICN). After a further 10 days the cells were plated into individual wells of 96 well plates. Every 10 days the concentration of MTX was increased two to three fold, up to a maximum of 400 nM. Final stable cell line selection was based on yield and activity of the expressed protein.
An attempt to purify recombinant DPP-4 using Talon resin was not efficient, resulting in small yields, with most of the DPP activity passing through the column. Therefore, protein was further purified using conventional anion exchange (Sepharose Q), gel filtration (S-200) and high resolution MonoQ columns. The final protein yielded a single band on SDS-PAGE gels. Amino acid sequence analysis indicated two populations of DPP-4 in the sample. One portion of the protein had 27 amino acids truncated from the N-terminus, while the other was lacking the N-terminal 37 amino acids. […] Total protein concentration was measured using the Bradford dye method and the amount of the active DPP-4 was determined by titrating the enzyme with a previously characterized inhibitor (Ki=0.4 nM).
Inhibition of human DPP-4 activity was measured under steady-state conditions by following the absorbance increase at 405 nm upon the cleavage of the pseudosubstrate, Gly-Pro-pNA. Assays were performed in 96-well plates using a Thermomax plate reader. […] To ensure steady-state conditions for slow-binding inhibitors, enzyme was preincubated with the compound for 40 minutes prior to substrate addition, to initiate the reaction.
Inhibitor potency was evaluated by fitting inhibition data to the binding isotherm:
[formula] where vi is the initial reaction velocity at different concentrations of inhibitor I; v is the control velocity in the absence of inhibitor, range is the difference between the uninhibited velocity and background; background is the rate of spontaneous substrate hydrolysis in the absent of enzyme, n is the Hill coefficient.
Calculated IC50s at each substrate concentration were converted to Ki assuming competitive inhibition according to:
All inhibitors were competitive as judged by a very good agreement of Ki values obtained from the assays at high and low substrate concentrations. […]

SMILES	pKi
Cc1nc2c(c(-c3ccc(Cl)cc3Cl)c1CN)C(=O)N(CC(=O)N(C)C)CC2 (single isomer, unassigned) [Example 2, TFA salt]	8.70
Cc1nc2c(c(-c3ccccc3Cl)c1CN)C(=O)N(CC(=O)N(C)C)CC2 (single isomer, unassigned) [Example 3, TFA salt]	7.42
Cc1nc2c(c(-c3ccc(Cl)cc3Cl)c1CN)C(=O)N(CC(=O)N(C)C)CC2 (single isomer, unassigned) [Example 4, TFA salt]	7.40
Cc1nc2c(c(-c3ccccc3Cl)c1CN)C(=O)N(CC(=O)N(C)C)CC2 (single isomer, unassigned) [Example 5, TFA Salt]	< 7.00
Cc1nc2c(c(-c3ccc(Cl)cc3Cl)c1CN)C(=O)NCC2 [Example 1, 3-(Aminomethyl)-4-(2,4-dichlorophenyl)-2-methyl-7,8-dihydro-1,6-naphthyridin-5(6H)-one HCl salt]	8.16
Cc1nc2c(c(-c3ccc(Cl)cc3Cl)c1CN)C(=O)N(CC(N)=O)CC2 [Example 6, (S)-2-(3-(Aminomethyl)-4-(2,4-dichlorophenyl)-2-methyl-5-oxo-7,8-dihydro-1,6-naphthyridin-6(5H)-yl)acetamide TFA salt]	8.46
CCN(CC)C(=O)CN1CCc2nc(C)c(CN)c(-c3ccc(Cl)cc3Cl)c2C1=O [Example 8, (S)-2-(3-(Aminomethyl)-4-(2,4-dichlorophenyl)-2-methyl-5-oxo-7,8-dihydro-1,6-naphthyridin-6(5H)-yl)-N,N-diethylacetamide TFA salt]	8.42
Cc1nc2c(c(-c3ccc(Cl)cc3Cl)c1CN)C(=O)N(CC(=O)N1CCCC1)CC2 [Example 9, (S)-3-(Aminomethyl)-4-(2,4-dichlorophenyl)-2-methyl-6-(2-oxo-2-(pyrrolidin-1-yl)ethyl)-7,8-dihydro-1,6-naphthyridin-5(6H)-one TFA salt]	8.46
Cc1nc2c(c(-c3ccc(Cl)cc3Cl)c1CN)C(=O)N(CC(=O)N1CCCCC1)CC2 [Example 10, (S)-3-(Aminomethyl)-4-(2,4-dichlorophenyl)-2-methyl-6-(2-oxo-2-(piperidin-1-yl)ethyl)-7,8-dihydro-1,6-naphthyridin-5(6H)-one TFA salt]	8.41
Cc1nc2c(c(-c3ccc(Cl)cc3Cl)c1CN)C(=O)N(CC(=O)N1CCC(N3CCCCC3=O)CC1)CC2 [Example 11, (S)-3-(Aminomethyl)-4-(2,4-dichlorophenyl)-2-methyl-6-(2-oxo-2-(2-oxo-1,4′-bipiperidin-1′-yl)ethyl)-7,8-dihydro-1,6-naphthyridin-5(6H)-one TFA salt]	7.31
Cc1nc2c(c(-c3ccc(Cl)cc3Cl)c1CN)C(=O)N(CC(=O)N1CCOCC1)CC2 [Example 12, (S)-3-(Aminomethyl)-4-(2,4-dichlorophenyl)-2-methyl-6-(2-morpholino-2-oxoethyl)-7,8-dihydro-1,6-naphthyridin-5(6H)-one TFA salt]	8.35
Cc1nc2c(c(-c3ccc(Cl)cc3Cl)c1CN)C(=O)N(C)CC2 [Example 13, 3-(Aminomethyl)-4-(2,4-dichlorophenyl)-2,6-dimethyl-7,8-dihydro-1,6-naphthyridin-5(6H)-one TFA salt]	8.11
Cc1nc2c(c(-c3ccc(Cl)cc3Cl)c1CN)C(=O)N(C[C@@H]1CCCO1)CC2 [Example 14, 3-(Aminomethyl)-4-(2,4-dichlorophenyl)-2-methyl-6-(((S)-tetrahydrofuran-2-yl)methyl)-7,8-dihydro-1,6-naphthyridin-5(6H)-one TFA salt]	8.23
COCCN1CCc2nc(C)c(CN)c(-c3ccc(Cl)cc3Cl)c2C1=O [Example 15, 3-(Aminomethyl)-4-(2,4-dichlorophenyl)-6-(2-methoxyethyl)-2-methyl-7,8-dihydro-1,6-naphthyridin-5(6H)-one TFA salt]	8.27
Cc1nc2c(c(-c3ccc(Cl)cc3Cl)c1CN)C(=O)N(CCO)CC2 [Example 16, 3-(Aminomethyl)-4-(2,4-dichlorophenyl)-6-(2-hydroxyethyl)-2-methyl-7,8-dihydro-1,6-naphthyridin-5(6H)-one TFA salt]	7.74
Cc1nc2c(c(-c3ccc(Cl)cc3Cl)c1CN)C(=O)N(c1ccccc1)CC2 [Example 17, 3-(Aminomethyl)-4-(2,4-dichlorophenyl)-2-methyl-6-phenyl-7,8-dihydro-1,6-naphthyridin-5(6H)-one TFA salt]	8.30
COc1ccccc1N1CCc2nc(C)c(CN)c(-c3ccc(Cl)cc3Cl)c2C1=O [Example 18, 3-(Aminomethyl)-4-(2,4-dichlorophenyl)-6-(2-methoxyphenyl)-2-methyl-7,8-dihydro-1,6-naphthyridin-5(6H)-one TFA Salt]	8.64
Cc1nc2c(c(-c3ccc(Cl)cc3Cl)c1CN)C(=O)NC(=O)C2 [Example 19, 3-(Aminomethyl)-4-(2,4-dichlorophenyl)-2-methyl-1,6-naphthyridine-5,7(6H,8H)-dione TFA Salt]	8.03
